Results as given in patent US20130131029A1, “ANTISOLVENT SOLIDIFICATION PROCESS” (MSD Oss B.V., priority 2005, published 2013).

What was measured:
[1] = Crystal size distribution (CSD) by laser diffraction (Mastersizer 2000, Fraunhofer model); format: physicochemical
Text: The solid, preferably crystalline, particles obtainable by a process as described above advantageously have a high purity and, furthermore, a narrow particle size range, such as were not obtainable by prior art processes. The span, defined as (d90-d10)/d50, wherein d50, d10, and d90 can be understood to mean that 50%, 10%, and 90%, respectively, of the particles having a particle size smaller than or equal to the indicated value as determined by conventional laser diffraction technique, can even be below 1.4, which is exceptional for a solidification process such as a crystallisation process. In general, for the process according to the present invention the span preferably is below 3. More preferably, the span is below 2.5, and most preferably below 2.
The following procedure was applied for the production of sodium chloride crystals using the antisolvent crystallisation process according to the present invention. All experiments were performed at ambient conditions. The resulting crystals were analysed by SEM (Scanning Electron Microscopy) and CSD (Crystal Size Distribution) measurements by means of laser diffraction using a Mastersizer 2000 apparatus of Malvern Instruments with a Fraunhofer model for data analysis.
The following procedure was applied for the production of 3-ketodesogestrel using the antisolvent crystallisation of the present invention. All experiments were performed at ambient conditions. The resulting crystals were analysed using CSD measurements that were measured via conventional laser diffraction technique.
A 3-ketodesogestrel solution was prepared of 97 g 3-ketodesogestrel in 5 l of ethanol. Water was used as antisolvent. For dosing, a Microdyn® type SE020TP1N membrane with an average pore size of 1 μm was used. The 3-ketodesogestrel solution was dosed from the outside of the membrane to the antisolvent on the inside of the membrane. The speed of the antisolvent was set to 45 l/hr. The speed of the 3-ketodesogestrel flow was set to 0.41 l/hr. Again, a gear pump was used to control the velocities. The crystals thus obtained were collected using filtration, washed with 100% ethanol, and subsequently dried in an oven. […] The span was determined to be 1.7. Herein d50, d10; and d90 can be understood to mean that 50%, 10%, and 90%, respectively, of the particles have a particle size smaller than or equal to the indicated value.
The following procedure was applied for the production of progesteron. All experiments were performed at ambient conditions. The resulting crystals were analysed by CSD measurements by means of laser diffraction using a Mastersizer 2000 apparatus of Malvern Instruments with a Fraunhofer model for data analysis.

[2] = as above; format: physicochemical; remark: listed apart in the source
[3] = Example 5, 34 mg tibolone in 1 kg ethanol, 65 l/hr, antisolvent 90 wt % water/10 wt % ethanol, 151/hr, SPG membrane 1.1 μm
[4] = Entry 1, antisolvent 100 wt % water, 0 wt % ethanol, 45 l/h, progesteron solution 50 g per litre ethanol, 12 l/h, Microdyn membrane 1 μm
[5] = Entry 2, antisolvent 85 wt % water, 15 wt % ethanol, 45 l/h, progesteron solution 50 g per litre ethanol, 12 l/h, Microdyn membrane 1 μm
[6] = Entry 3, antisolvent 70 wt % water, 30 wt % ethanol, 45 l/h, progesteron solution 50 g per litre ethanol, 12 l/h, Microdyn membrane 1 μm
[7] = Entry 2, antisolvent flow 45 l/h, 3-ketodesogestrel flow 0.4 l/h, Microdyn membrane pore size 1 μm
[8] = Example 2, 97 g in 5 l ethanol, flow 0.41 l/hr, water antisolvent 45 l/hr, Microdyn membrane 1 μm
[9] = Entry 1, antisolvent flow 45 l/h, 3-ketodesogestrel flow 0.7 l/h, Microdyn membrane pore size 1 μm
[10] = Entry 3, antisolvent flow 45 l/h, 3-ketodesogestrel flow 6.2 l/h, Microdyn membrane pore size 1 μm
[11] = Entry 4, antisolvent flow 90 l/h, 3-ketodesogestrel flow 0.7 l/h, Microdyn membrane pore size 1 μm
[12] = Entry 5, antisolvent flow 90 l/h, 3-ketodesogestrel flow 5.0 l/h, Microdyn membrane pore size 1 μm
[13] = Entry 6, antisolvent flow 45 l/h, 3-ketodesogestrel flow 10 l/h, Microdyn membrane pore size 1 μm
[14] = Entry 7, antisolvent flow 45 l/h, 3-ketodesogestrel flow 42 l/h, Microdyn membrane pore size 1 μm
[15] = Entry 8, antisolvent flow 45 l/h, 3-ketodesogestrel flow 20 l/h, Microdyn membrane pore size 1 μm
[16] = Example 1, 25 wt % NaCl solution 60 l/hr into ethanol antisolvent 50 l/hr, SPG membrane pore-size 1.1 μm

## C#CC1(O)CCC2C3C(CCC21C)C1=C(CC(=O)CC1)C[C@H]3C (stereo partly shown) [tibolone, (7alfa, 17alfa)-17-hydroxy-7-methyl-19-nor-pregn-5(10)-en-20-yn-3-one]
[1]; [3]
  d90: 51.3 μm
[2]; [3]
  d10: 3.8 μm
  d50: 18.2 μm

## CC(=O)[C@H]1CC[C@H]2[C@@H]3CCC4=CC(=O)CC[C@]4(C)[C@H]3CC[C@]12C [progesteron, pregn-4-ene-3,20-dione]
[1]; [4]
  d90: 16
[1]; [5]
  d10: 4
  d90: 25
[1]; [6]
  Span: 1.7
[1]; all antisolvent compositions of Table 2
  span, in words: surprisingly small span
[2]; [4]
  Span: 2
  d10: 2
  d50: 7
[2]; [5]
  Span: 1.8
  d50: 12
[2]; [6]
  d10: 7
  d50: 21
  d90: 43

## C#C[C@]1(O)CC[C@H]2[C@@H]3CCC4=CC(=O)CC[C@@H]4[C@H]3C(=C)C[C@@]21CC [3-ketodesogestrel, (17alfa)-17-hydroxy-13-ethyl-11-methylene-18,19-dinorpregn-4-en-20-yn-3-one]
[1]; [7]
  d50: 10 µm
[1]; [8]
  Span: 1.7
  d10: 3 μm
  d50: 10 μm
[2]; [9]
  Span: 1.6
  d10: 3 µm
  d50: 11 µm
  d90: 21 µm
[2]; [7]
  Span: 1.7
  d10: 3 µm
  d90: 20 µm
[2]; [10]
  Span: 2.5
  d10: 5 µm
  d50: 16 µm
  d90: 45 µm
[2]; [11]
  Span: 1.9
  d10: 4 µm
  d50: 10 µm
  d90: 23 µm
[2]; [12]
  Span: 2.9
  d10: 2 µm
  d50: 7 µm
  d90: 22 µm
[2]; [13]
  Span: 2.8
  d10: 2 µm
  d50: 8 µm
  d90: 24 µm
[2]; [14]
  Span: 1.9
  d10: 12 µm
  d50: 42 µm
  d90: 90 µm
[2]; [15]
  Span: 3
  d10: 2 µm
  d50: 9 µm
  d90: 29 µm
[2]; [8]
  d90: 20 μm

## [Cl-].[Na+] [sodium chloride]
[1]; [16]
  average crystal size d50: 40 μm
[1]; Example 1 additional experiment, stirring rod 630 rpm inside membrane, salt solution 40 l/hr, ethanol 50 l/hr
  Span: 1.2
[2]; [16]
  Span: 1.5
